Experimental findings from patent publication US7595334B2, “Broadspectrum 2-(substituted-amino)-benzoxazole sulfonamide HIV protease inhibitors” (Tibotec Pharmaceuticals Ltd., priority 2001, dated 2009) are described below.

For data set [1], the system named is HIV strain C (clinically isolated, protease mutations). The data set is classed as cell-based. The note with it: FR=EC50(mutant strain C)/EC50(HIV-1 strain LAI). The procedure: (§1) HIV- or mock-infected MT4 cells were incubated for five days in the presence of various concentrations of the inhibitor. […] Cell viability is measured by measuring the concentration of MTT, a yellow, water soluble tetrazolium dye that is converted to a purple, water insoluble formazan in the mitochondria of living cells only. Upon solubilization of the resulting formazan crystals with isopropanol, the absorbance of the solution is monitored at 540 nm. The values correlate directly to the number of living cells remaining in the culture at the completion of the five day incubation. The inhibitory activity of the compound was monitored on the virus-infected cells and was expressed as EC50 and EC90. These values represent the amount of the compound required to protect 50% and 90%, respectively, of the cells from the cytopathogenic effect of the virus. The toxicity of the compound was measured on the mock-infected cells and was expressed as CC50, which represents the concentration of compound required to inhibit the growth of the cells by 50%. The selectivity index (SI) (ratio CC50/EC50) is an indication of the selectivity of the anti-HIV activity of the inhibitor. Wherever results are reported as e.g. pEC50 or pCC50 values, the result is expressed as the negative logarithm of the result expressed as EC50 or CC50 respectively.
(§2) As a measure of the broad spectrum activity of the present compounds, the fold resistance (FR), defined as FR=EC50(mutant strain)/EC50(HIV-1 strain LAI), was determined.

Data set [2] relates to HIV strain B (clinically isolated, protease mutations). It is filed as cell-based. The note with it: FR=EC50(mutant strain B)/EC50(HIV-1 strain LAI). The procedure: as §1, §2
The subject of data set [3] is HIV strain E (clinically isolated, protease mutations). The data set is classed as cell-based. The note with it: FR=EC50(mutant strain E)/EC50(HIV-1 strain LAI). The procedure:
as §1, §2

Data set [4] deals with HIV strain A (clinically isolated, protease mutations). The data set is classed as cell-based. The note with it: FR=EC50(mutant strain A)/EC50(HIV-1 strain LAI). The protocol: as §1, §2
Data set [5] has as its system HIV strain D (clinically isolated, protease mutations). The data set is classed as cell-based. The note with it: FR=EC50(mutant strain D)/EC50(HIV-1 strain LAI). The protocol:
as §1, §2

Data set [6] deals with HIV strain F (clinically isolated, protease mutations). The data set is classed as cell-based. The note with it: FR=EC50(mutant strain F)/EC50(HIV-1 strain LAI). The procedure: as §1, §2
The conditions of data set [7]: in vivo, ip, 20 mg/kg. The protocol:
The compounds are formulated as a 20 mg/ml solution or suspension in DMSO, PEG400 or cyclodextin 40% in water. For most experiments in the rat (male and female rats), three dosing groups are formed: 1/single intraperitoneal (IP) dose at 20 mg/kg using the DMSO formulation; 2/single oral dose at 20 mg/kg using the PEG400 formulation and 3/single oral dose at 20 mg/kg using the cyclodextrin formulation. Blood is sampled at regular time intervals after dosing and drug concentrations in the serum are determined using a LC-MS bioanalytical method. Serum concentrations are expressed in […] after normalization to 10 mg/kg. Serum concentration at 30 minutes (30′) and at 3 hours (180′) can be determined as these values reflect the extent of absorption (30′) and the speed of elimination (180′). The rat serum concentration at 30 min and 180 min following IP administration of 20 mg/kg of compound 4 are 1098 ng/ml and 553 ng/ml respectively.

The subject of the next data set is HIV-1 LAI. Description: Protein binding analyses: anti-HIV activity in presence of serum proteins. The data set is classed as cell-based. The note with it: MT4 cells. The protocol:
Human serum proteins like albumin (HSA) or α-1 acid glycoprotein (AAG) are known to bind many drugs, resulting in a possible decrease in the effectiveness of those compounds. In order to determine whether the present compounds would be adversely affected by this binding, the anti-HIV activity of the compounds was measured in the presence of human serum, thus evaluating the effect of the binding of the protease inhibitors to those proteins.
MT4 cells are infected with HIV-1 LAI at a multiplicity of infection (MOI) of 0.001-0.01 CCID50 (50% cell culture infective dose per cell, CCID50). After 1 h incubation, cells are washed and plated into a 96 well plate containing serial dilutions of the compound in the presence of 10% FCS (foetal calf serum), 10% FCS+1 mg/ml AAG (α1-acid glycoprotein), 10% FCS+45 mg/ml HSA (human serum albumin) or 50% human serum (HS). After 5 or 6 days incubation, the EC50 (50% effective concentration in cell-based assays) is calculated by determining the cell viability or by quantifying the level of HIV replication. Cell viability is measured using the assay described above. Into a 96 well plate containing serial dilutions of the compound in the presence of 10% FCS or 10% FCS+1 mg/ml AAG, HIV (wild type or resistant strain) and MT4 cells are added to a final concentration of 200-250 CCID50/well and 30,000 cells/well, respectively. After 5 days of incubation (37° C., 5% CO2), the viability of the cells is determined by the tetrazolium colorimetric MTT (3-[4,5-Dimethylthiazol-2-yl]-2,5-diphenyltetrazolium bromide) method (Pauwels et al. J Virol. Methods 1988, 20, 309-321).

For a further data set, the system named is mock-infected MT4 cells. Description: in vitro. The protocol:
as §1, §2

The next data set is described as follows: in vitro. The note with it: human. The procedure: as §1, §2

Take `CC(C)CN(C[C@@H](O)[C@H](Cc1ccccc1)NC(=O)O[C@H]1CO[C@H]2OCC[C@H]21)S(=O)(=O)c1ccc2nc(NCCN3CCCC3)oc2c1` [Compound 4]: the “C (FR) fold resistance” value in data set [1] is 1.70. Besides, the “B (FR) fold resistance” value in data set [2] worked out at 1.62. Besides, the “E (FR) fold resistance” value in data set [3] is recorded as 0.50. The “A (FR) fold resistance” value in data set [4] was determined as 1.95. Further, the “D (FR) fold resistance” value in data set [5] is reported as 0.47. Besides, the “F (FR) fold resistance” value in data set [6] is 3.2. Moreover, in data set [7], the “rat serum concentration at 30 min” value amounted to 1098 ng/mL and the “rat serum concentration at 180 min” value was determined as 553 ng/mL.

Regarding `CC(=O)Nc1nc2ccc(S(=O)(=O)N(CC(C)C)C[C@@H](O)[C@H](Cc3ccccc3)NC(=O)O[C@H]3CO[C@H]4OCC[C@H]43)cc2o1` [Compound 1], the “Ratio of the EC50 compared to FCS (10%)” value is recorded as 25 with HIV-1 LAI (AAG 1 mg/ml (10% FCS+AAG)), 1 in the data set on HIV-1 LAI (FCS (10%)), 15 in the data set on HIV-1 LAI (HS 50% (human serum)) and 6 with HIV-1 LAI (HSA 45 mg/ml (10% FCS+HSA)). Besides, the “C (FR) fold resistance” value in data set [1] is 0.50. In [2], the “B (FR) fold resistance” value amounted to 0.80. Further, the “E (FR) fold resistance” value in data set [3] was 0.40. The “A (FR) fold resistance” value in data set [4] is reported as 0.63. For the same compound, the “D (FR) fold resistance” value in [5] is reported as 0.72. Further, in data set [6], the “F (FR) fold resistance” value came to 0.71. Moreover, the “Tox (pCC50)” value in the data set with mock-infected MT4 cells is reported as under 4.

For the compound `CC(C)CN(C[C@@H](O)[C@H](Cc1ccccc1)NC(=O)OCc1cncs1)S(=O)(=O)c1ccc2nc(N(C)C(=O)C3CCCN(C)C3)oc2c1` (stereo partly drawn) [Compound 27], the “C (FR) fold resistance” value in [1] is 0.68. For the same compound, in data set [2], the “B (FR) fold resistance” value was determined as 1.00. Besides, the “E (FR) fold resistance” value in data set [3] amounted to 0.85. For the same compound, the “A (FR) fold resistance” value in [4] is listed as 4.4. Moreover, the “D (FR) fold resistance” value in data set [5] is reported as 2.9. The “F (FR) fold resistance” value in data set [6] worked out at 24. Also, in the data set on mock-infected MT4 cells, the “Tox (pCC50)” value is under 4.

For the compound `CC(C)CN(C[C@@H](O)[C@H](Cc1ccccc1)NC(=O)O[C@H]1CO[C@H]2OCC[C@H]21)S(=O)(=O)c1ccc2nc(NCCN(C)C)oc2c1` [Compound 2], in data set [1], the “C (FR) fold resistance” value was 0.59. Moreover, in data set [2], the “B (FR) fold resistance” value was determined as 0.49. In addition, the “E (FR) fold resistance” value in data set [3] came out at 0.36. For the same compound, the “A (FR) fold resistance” value in [4] is given as 1.1. Moreover, the “D (FR) fold resistance” value in data set [5] is listed as 0.32. Also, the “F (FR) fold resistance” value in data set [6] came to 2.7. For the same compound, the “Tox (pCC50)” value in the data set with mock-infected MT4 cells is listed as under 4.

Regarding `CC(C)CN(C[C@@H](O)[C@H](Cc1ccccc1)NC(=O)OCc1cncs1)S(=O)(=O)c1ccc2nc(NC(=O)c3ccncc3)oc2c1` [Compound 10], the “C (FR) fold resistance” value in [1] came out at 1.1. For the same compound, the “B (FR) fold resistance” value in data set [2] is on record as 10.83. The “E (FR) fold resistance” value in data set [3] is recorded as 1.3. Further, in data set [4], the “A (FR) fold resistance” value is 3.9. The “D (FR) fold resistance” value in [5] amounted to 3.9. Further, the “F (FR) fold resistance” value in [6] worked out at 20. This compound gave a CC50 at 5 days in the data set “in vitro” of 53.7 µM.

In the case of `CC(C)CN(C[C@@H](O)[C@H](Cc1ccccc1)NC(=O)OCc1cncs1)S(=O)(=O)c1ccc2nc(NC(=O)CN(C)CCN3CCCC3)oc2c1` [Compound 24], in data set [1], the “C (FR) fold resistance” value is given as 1.3. In addition, the “B (FR) fold resistance” value in data set [2] stood at 0.53. The “E (FR) fold resistance” value in [3] is given as 1.4. In data set [4], the “A (FR) fold resistance” value is listed as 1.9. Further, the “D (FR) fold resistance” value in [5] was determined as 1.6. Also, the “F (FR) fold resistance” value in data set [6] was 6.8. Besides, the “Tox (pCC50)” value in the data set on mock-infected MT4 cells is recorded as under 4.

With `CC(C)CN(C[C@@H](O)[C@H](Cc1ccccc1)NC(=O)OCc1cncs1)S(=O)(=O)c1ccc2nc(NC(=O)C3CCN(C)CC3)oc2c1` [Compound 15], in data set [1], the “C (FR) fold resistance” value is reported as 1.1. Moreover, the “B (FR) fold resistance” value in data set [2] turned out to be 0.81. The “E (FR) fold resistance” value in [3] is 1.5. Moreover, the “A (FR) fold resistance” value in data set [4] is given as 2.3. In [5], the “D (FR) fold resistance” value is reported as 1.7. The “F (FR) fold resistance” value in [6] was determined as 7.8. Besides, in the data set with mock-infected MT4 cells, the “Tox (pCC50)” value is under 4.
